Data on 26 compounds can be found in patent publication US10738030B2, “Modulators of cystic fibrosis transmembrane conductance regulator” (Vertex Pharmaceuticals Incorporated, priority 2016, dated 2020).

The target in this assay is T1, F508del (Homo sapiens, UniProt P13569, DEL508-508).
T1 construct: expressed in transfected cells
Nature of the assay: Membrane potential optical assay (FRET voltage-sensor dyes), identification of correction compounds. The class given is cell-based. Particulars: NIH3T3 cells stably expressing F508del, procedures described above; for Emax: maximum efficacy, read-out: Max Efficacy; for pEC50: modulation of CFTR activity. The essentials:
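Correctors were applied for 16 hrs at 37° C. to F508del-expressing mouse NIH3T3 cells in serum-free medium; 27° C. incubation served as positive control. Channel activation by forskolin (10 μM) and genistein (20 μM) with gluconate bath drove Cl⁻ efflux, tracked as membrane depolarization via voltage-sensitive FRET dyes.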

SMILES strings stand for the structures. pEC50: −log10 of the molar value.

T1 sequence (P13569 with tags, fused parts or gaps DEL508-508): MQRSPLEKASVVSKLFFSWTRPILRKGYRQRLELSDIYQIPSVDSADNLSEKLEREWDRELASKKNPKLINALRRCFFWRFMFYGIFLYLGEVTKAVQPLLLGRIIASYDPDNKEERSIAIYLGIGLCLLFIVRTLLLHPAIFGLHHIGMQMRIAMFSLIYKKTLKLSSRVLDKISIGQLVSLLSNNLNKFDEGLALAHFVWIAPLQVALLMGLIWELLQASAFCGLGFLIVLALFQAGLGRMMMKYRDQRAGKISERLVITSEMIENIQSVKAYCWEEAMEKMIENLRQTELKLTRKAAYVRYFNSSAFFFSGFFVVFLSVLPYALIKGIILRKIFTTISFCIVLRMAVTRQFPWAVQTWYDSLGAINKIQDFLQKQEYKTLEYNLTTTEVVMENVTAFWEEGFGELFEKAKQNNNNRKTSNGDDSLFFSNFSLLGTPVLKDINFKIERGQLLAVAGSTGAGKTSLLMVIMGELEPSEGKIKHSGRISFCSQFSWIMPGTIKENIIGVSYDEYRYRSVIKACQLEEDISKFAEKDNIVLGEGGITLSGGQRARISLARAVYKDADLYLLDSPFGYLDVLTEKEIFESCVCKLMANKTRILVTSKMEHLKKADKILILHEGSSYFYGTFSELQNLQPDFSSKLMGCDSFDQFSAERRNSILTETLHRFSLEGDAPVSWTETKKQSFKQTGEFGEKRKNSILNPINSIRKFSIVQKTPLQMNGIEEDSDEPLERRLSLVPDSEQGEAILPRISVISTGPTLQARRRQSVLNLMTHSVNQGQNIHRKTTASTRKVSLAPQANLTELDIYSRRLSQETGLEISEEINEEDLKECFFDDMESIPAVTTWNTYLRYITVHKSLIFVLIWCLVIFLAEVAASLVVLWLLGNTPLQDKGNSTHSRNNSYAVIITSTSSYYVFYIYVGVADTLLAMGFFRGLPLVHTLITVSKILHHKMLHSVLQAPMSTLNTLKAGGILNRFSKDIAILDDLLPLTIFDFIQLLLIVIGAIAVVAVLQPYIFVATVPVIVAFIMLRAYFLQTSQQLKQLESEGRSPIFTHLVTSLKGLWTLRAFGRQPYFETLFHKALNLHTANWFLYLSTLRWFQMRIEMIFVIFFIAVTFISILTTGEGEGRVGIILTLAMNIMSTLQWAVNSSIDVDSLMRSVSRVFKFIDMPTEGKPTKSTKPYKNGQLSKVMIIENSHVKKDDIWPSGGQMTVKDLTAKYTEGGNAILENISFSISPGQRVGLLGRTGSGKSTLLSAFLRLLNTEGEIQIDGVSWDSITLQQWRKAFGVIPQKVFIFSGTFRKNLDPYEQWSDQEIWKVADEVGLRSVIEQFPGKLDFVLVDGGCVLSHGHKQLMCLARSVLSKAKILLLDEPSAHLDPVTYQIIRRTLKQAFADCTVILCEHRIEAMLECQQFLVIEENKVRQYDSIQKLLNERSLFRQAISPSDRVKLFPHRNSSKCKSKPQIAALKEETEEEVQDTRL

For the compound `CCN(CC)c1nc(-c2cc(F)cc(OCC(C)C)c2)ccc1C(=O)NS(=O)(=O)c1cccc(N)n1` [Compound 53, N-[(6-amino-2-pyridyl)sulfonyl]-2-(diethylamino)-6-(3-fluoro-5-isobutoxy-phenyl)pyridine-3-carboxamide], the Emax was over 80% and the pEC50 (usually the negative decadic logarithm of the EC50, by convention in mol/L) is over 5.52.
In the same order, the values of `CC(C)COc1cc(F)cc(-c2ccc(C(=O)NS(=O)(=O)c3cccc(N)n3)c(NC(C)C(C)C)n2)c1` (stereo not shown) [Compound 54, N-[(6-amino-2-pyridyl)sulfonyl]-2-(1,2-dimethylpropylamino)-6-(3-fluoro-5-isobutoxy-phenyl)pyridine-3-carboxamide] are 30 to 80% and 5.00 to 5.52.
In the same order, the values of `CC(C)COc1cc(F)cc(-c2ccc(C(=O)NS(=O)(=O)c3cccc(N)n3)c(OCCOC(C)C)n2)c1` [Compound 55, N-[(6-amino-2-pyridyl)sulfonyl]-6-(3-fluoro-5-isobutoxy-phenyl)-2-(2-isopropoxyethoxy)pyridine-3-carboxamide] are 30 to 80% and over 5.52.
The corresponding values for `CCCC(C)Oc1nc(-c2cc(F)cc(OCC(C)C)c2)ccc1C(=O)NS(=O)(=O)c1cccc(N)n1` (stereo not shown) [Compound 56, N-[(6-amino-2-pyridyl)sulfonyl]-6-(3-fluoro-5-isobutoxy-phenyl)-2-(1-methylbutoxy)pyridine-3-carboxamide] are over 80% and over 5.52.
For `CC(C)COc1cc(F)cc(-c2ccc(C(=O)NS(=O)(=O)c3cccc(N)n3)c(OCC(C)(F)F)n2)c1` [Compound 57, N-[(6-amino-2-pyridyl)sulfonyl]-2-(2,2-difluoropropoxy)-6-(3-fluoro-5-isobutoxy-phenyl)pyridine-3-carboxamide], the Emax was in the range of 30 to 80% and the negative logarithm of the EC50 (pEC50) was over 5.52.
With `CC(C)COc1cc(F)cc(-c2ccc(C(=O)NS(=O)(=O)c3cccc(N)n3)c(NC(C)(C)C)n2)c1` [Compound 58, N-[(6-amino-2-pyridyl)sulfonyl]-2-(tert-butylamino)-6-(3-fluoro-5-isobutoxy-phenyl)pyridine-3-carboxamide], the Emax was over 80% and the pEC50 is over 5.52.
In the same order, the values of `CC[C@@H](C)Oc1nc(-c2cc(F)cc(OCC(C)C)c2)ccc1C(=O)NS(=O)(=O)c1cccc(N)n1` [Compound 59, N-[(6-amino-2-pyridyl)sulfonyl]-6-(3-fluoro-5-isobutoxy-phenyl)-2-[(1R)-1-methylpropoxy]pyridine-3-carboxamide] are 30 to 80% and over 5.52.
The corresponding values for `COCCOc1nc(-c2cc(F)cc(OCC(C)C)c2)ccc1C(=O)NS(=O)(=O)c1cccc(N)n1` [Compound 60, N-[(6-amino-2-pyridyl)sulfonyl]-6-(3-fluoro-5-isobutoxy-phenyl)-2-(2-methoxyethoxy)pyridine-3-carboxamide] are 30 to 80% and over 5.52.
In the same order, the values of `CC(C)COc1cc(F)cc(-c2ccc(C(=O)NS(=O)(=O)c3cccc(N)n3)c(N(C)CC(C)C)n2)c1` [Compound 61, N-[(6-amino-2-pyridyl)sulfonyl]-6-(3-fluoro-5-isobutoxy-phenyl)-2-[isobutyl(methyl)amino]pyridine-3-carboxamide] are over 80% and over 5.52.
As for `CCCC(C)C(C)Oc1nc(-c2cc(F)cc(OCC(C)C)c2)ccc1C(=O)NS(=O)(=O)c1cccc(N)n1` (stereo not shown) [Compound 62, N-[(6-amino-2-pyridyl)sulfonyl]-2-(1,2-dimethylpentoxy)-6-(3-fluoro-5-isobutoxy-phenyl)pyridine-3-carboxamide], the Emax lay in the range of 30 to 80% and the pEC50 was over 5.52.
Take `CCCCOc1nc(-c2cc(F)cc(OCC(C)C)c2)ccc1C(=O)NS(=O)(=O)c1cccc(N)n1` [Compound 63, N-[(6-amino-2-pyridyl)sulfonyl]-2-butoxy-6-(3-fluoro-5-isobutoxy-phenyl)pyridine-3-carboxamide]: the Emax is over 80% and the pEC50 was over 5.52.
Turning to `CCCN(C)c1nc(-c2cc(F)cc(OCC(C)C)c2)ccc1C(=O)NS(=O)(=O)c1cccc(N)n1` [Compound 64, N-[(6-amino-2-pyridyl)sulfonyl]-6-(3-fluoro-5-isobutoxy-phenyl)-2-[methyl(propyl)amino]pyridine-3-carboxamide], the Emax is over 80% and the pEC50 was over 5.52.
In the same order, the values of `COC[C@@H](C)Oc1nc(-c2cc(F)cc(OCC(C)C)c2)ccc1C(=O)NS(=O)(=O)c1cccc(N)n1` [Compound 65, N-[(6-amino-2-pyridyl)sulfonyl]-6-(3-fluoro-5-isobutoxy-phenyl)-2-[(1R)-2-methoxy-1-methyl-ethoxy]pyridine-3-carboxamide] are 30 to 80% and over 5.52.
The corresponding values for `CC(C)COc1cc(F)cc(-c2ccc(C(=O)NS(=O)(=O)c3cccc(N)n3)c(N(C)CC(F)(F)F)n2)c1` [Compound 66, N-[(6-amino-2-pyridyl)sulfonyl]-6-(3-fluoro-5-isobutoxy-phenyl)-2-[methyl(2,2,2-trifluoroethyl)amino]pyridine-3-carboxamide] are over 80% and over 5.52.
In the same order, the values of `CCN(C)c1nc(-c2cc(F)cc(OCC(C)C)c2)ccc1C(=O)NS(=O)(=O)c1cccc(N)n1` [Compound 67, N-[(6-amino-2-pyridyl)sulfonyl]-2-[ethyl(methyl)amino]-6-(3-fluoro-5-isobutoxy-phenyl)pyridine-3-carboxamide] are over 80% and over 5.52.
Turning to `CC(C)COc1cc(F)cc(-c2ccc(C(=O)NS(=O)(=O)c3cccc(N)n3)c(OC(C(C)C)C(C)(C)C)n2)c1` (stereo not shown) [Compound 68, N-[(6-amino-2-pyridyl)sulfonyl]-6-(3-fluoro-5-isobutoxy-phenyl)-2-(1-isopropyl-2,2-dimethyl-propoxy)pyridine-3-carboxamide], the Emax lay within 30 to 80% and the pEC50 is over 5.52.
In the same order, the values of `CCC(CC)N(C)c1nc(-c2cc(F)cc(OCC(C)C)c2)ccc1C(=O)NS(=O)(=O)c1cccc(N)n1` [Compound 69, N-[(6-amino-2-pyridyl)sulfonyl]-2-[1-ethylpropyl(methyl)amino]-6-(3-fluoro-5-isobutoxy-phenyl)pyridine-3-carboxamide] are over 80% and over 5.52.
Consider `CC(C)Oc1ccc(-c2ccc(C(=O)NS(=O)(=O)c3cccc(N)n3)c(N(C)C(C)C)n2)cn1` [Compound 70, N-[(6-amino-2-pyridyl)sulfonyl]-6-(6-isopropoxy-3-pyridyl)-2-[isopropyl(methyl)amino]pyridine-3-carboxamide], for which the Emax was 30 to 80% and the negative logarithm of the EC50 (pEC50) is 5.00 to 5.52.
Consider `CCOCC(C)Oc1nc(-c2cc(F)cc(OCC(C)C)c2)ccc1C(=O)NS(=O)(=O)c1cccc(N)n1` (stereo not shown) [Compound 71, N-[(6-amino-2-pyridyl)sulfonyl]-2-(2-ethoxy-1-methyl-ethoxy)-6-(3-fluoro-5-isobutoxy-phenyl)pyridine-3-carboxamide], for which the Emax lay in the range of 30 to 80% and the negative logarithm of the EC50 (pEC50) is over 5.52.
Turning to `CC(C)COc1cc(F)cc(-c2ccc(C(=O)NS(=O)(=O)c3ccn[nH]3)c(NCC(C)(C)C)n2)c1` [Compound 72, 2-(2,2-dimethylpropylamino)-6-(3-fluoro-5-isobutoxy-phenyl)-N-(1H-pyrazol-5-ylsulfonyl)pyridine-3-carboxamide], the Emax fell in the range of 30 to 80% and the pEC50 was 5.00 to 5.52.
The corresponding values for `CC(C)COc1cc(F)cc(-c2ccc(C(=O)NS(=O)(=O)c3cccc(N)n3)c(OC(C)C(F)(F)F)n2)c1` (stereo not shown) [Compound 73, N-[(6-amino-2-pyridyl)sulfonyl]-6-(3-fluoro-5-isobutoxy-phenyl)-2-(2,2,2-trifluoro-1-methyl-ethoxy)pyridine-3-carboxamide] are 30 to 80% and over 5.52.
As for `CCN(c1nc(-c2cc(F)cc(OCC(C)C)c2)ccc1C(=O)NS(=O)(=O)c1cccc(N)n1)C(C)C` [Compound 74, N-[(6-amino-2-pyridyl)sulfonyl]-2-[ethyl(isopropyl)amino]-6-(3-fluoro-5-isobutoxy-phenyl)pyridine-3-carboxamide], the Emax is over 80% and the negative-log EC50 (pEC50) was over 5.52.
Regarding `CC(C)COc1cc(F)cc(-c2ccc(C(=O)NS(=O)(=O)c3cccc(N)n3)c(N(C)[C@H](C)C(F)(F)F)n2)c1` [Compound 75, N-[(6-amino-2-pyridyl)sulfonyl]-6-(3-fluoro-5-isobutoxy-phenyl)-2-[methyl-[(1R)-2,2,2-trifluoro-1-methyl-ethyl]amino]pyridine-3-carboxamide], the Emax was over 80% and the negative logarithm of the EC50 (pEC50) was over 5.52.
In the same order, the values of `CC(C)COc1cc(F)cc(-c2ccc(C(=O)NS(=O)(=O)c3cccc(N)n3)c(C(C)C(C)C)n2)c1` (stereo not shown) [Compound 76, N-[(6-amino-2-pyridyl)sulfonyl]-2-(1,2-dimethylpropyl)-6-(3-fluoro-5-isobutoxy-phenyl)pyridine-3-carboxamide] are 30 to 80% and over 5.52.
In the same order, the values of `CCC(C)(C)CCOc1nc(-c2cc(F)cc(OCC(C)C)c2)ccc1C(=O)NS(=O)(=O)c1cccc(N)n1` [Compound 77, N-[(6-amino-2-pyridyl)sulfonyl]-2-(3,3-dimethylpentoxy)-6-(3-fluoro-5-isobutoxy-phenyl)pyridine-3-carboxamide] are 30 to 80% and over 5.52.
In the case of `CC(C)COc1cc(F)cc(-c2ccc(C(=O)NS(=O)(=O)c3ccn[nH]3)c(N(C)C(C)C)n2)c1` [Compound 79, 6-(3-fluoro-5-isobutoxy-phenyl)-2-[isopropyl(methyl)amino]-N-(1H-pyrazol-5-ylsulfonyl)pyridine-3-carboxamide], the Emax is over 80% and the pEC50 was over 5.52.
